How the values were obtained:
Experiment in all cases: relative viability (nuclei count vs DMSO), 5 days (fraction); higher = more cells survive
[1] = compound: CN(c1ncccc1CNc1nc(Nc2ccc3c(c2)CC(=O)N3)ncc1C(F)(F)F)S(C)(=O)=O + CC(C)C[C@H](NC(=O)[C@H](Cc1ccccc1)NC(=O)c1cnccn1)B(O)O [Bortezomib] (partner 0.002 µM)
Summary of the method: (§1)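 Lung cancer cell lines were pin-tool dosed in 1536-well plates on the day after seeding, with either a lone drug or a fixed anchor-drug dose plus five library-drug doses (not always all listed) in √10 steps. Nuclei were counted on 4× images after 5 days. Relative viability is the ratio of treated-well to vehicle-well nuclei counts, with each value a median of duplicate plates.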

[2] = compound: CN(c1ncccc1CNc1nc(Nc2ccc3c(c2)CC(=O)N3)ncc1C(F)(F)F)S(C)(=O)=O + CS(=O)(=O)N1CCN(Cc2cc3nc(-c4cccc5[nH]ncc45)nc(N4CCOCC4)c3s2)CC1 [Pictilisib] (partner 1 µM)
Summary of the method: as §1

[3] = compound: CN(c1ncccc1CNc1nc(Nc2ccc3c(c2)CC(=O)N3)ncc1C(F)(F)F)S(C)(=O)=O + O=C(c1cc(Cc2n[nH]c(=O)c3ccccc23)ccc1F)N1CCN(C(=O)C2CC2)CC1 [Olaparib] (partner 8 µM)
Summary of the method: as §1

[4] = compound: CN(c1ncccc1CNc1nc(Nc2ccc3c(c2)CC(=O)N3)ncc1C(F)(F)F)S(C)(=O)=O + CC(=O)Nc1cccc(-n2c(=O)n(C3CC3)c(=O)c3c(Nc4ccc(I)cc4F)n(C)c(=O)c(C)c32)c1 [Trametinib] (partner 0.02 µM)
Summary of the method: as §1

Cell Line | relative viability ([1]; first compound 0.01 µM) | relative viability ([1]; first compound 0.03162 µM) | relative viability ([1]; first compound 0.1 µM) | relative viability ([1]; first compound 0.3162 µM) | relative viability ([1]; first compound 1 µM) | relative viability ([2]; first compound 0.01 µM) | relative viability ([2]; first compound 0.03162 µM) | relative viability ([2]; first compound 0.1 µM) | relative viability ([2]; first compound 0.3162 µM) | relative viability ([2]; first compound 1 µM) | relative viability ([3]; first compound 0.01 µM) | relative viability ([3]; first compound 0.03162 µM) | relative viability ([3]; first compound 0.1 µM) | relative viability ([3]; first compound 0.3162 µM) | relative viability ([3]; first compound 1 µM) | relative viability ([4]; first compound 0.01 µM) | relative viability ([4]; first compound 0.03162 µM) | relative viability ([4]; first compound 0.1 µM) | relative viability ([4]; first compound 0.3162 µM) | relative viability ([4]; first compound 1 µM)
201T | 1.1 | 1.09 | 1.04 | 1.01 | 1.08 | 0.697 | 0.666 | 0.613 | 0.675 | 0.647 | 0.827 | 0.887 | 0.814 | 0.776 | 0.779 | 0.709 | 0.712 | 0.664 | 0.669 | 0.67
A549 |  |  |  |  |  | 0.474 | 0.63 | 0.569 | 0.452 | 0.409 | 0.29 | 0.367 | 0.352 | 0.464 | 0.373 |  |  |  |  | 
A-427 | 1.09 | 1.01 | 0.998 | 0.942 | 0.965 | 0.69 | 0.753 | 0.638 | 0.73 | 0.667 | 0.752 | 0.738 | 0.651 | 0.741 | 0.651 | 0.722 | 0.791 | 0.67 | 0.821 | 0.741
ABC-1 | 0.308 | 0.273 | 0.396 | 0.376 | 0.329 | 0.74 | 0.822 | 0.746 | 0.952 | 0.847 | 0.813 | 1.08 | 1.42 | 0.893 | 1.06 |  |  |  |  | 
BEN | 0.821 | 0.772 | 0.993 | 0.865 | 0.856 | 0.595 | 0.585 | 0.512 | 0.594 | 0.703 | 0.961 | 1.27 | 1.26 | 1.18 | 1.1 | 0.954 | 1.19 | 0.92 | 1.02 | 0.869
CAL-12T | 1.07 | 0.886 | 0.856 | 0.919 | 0.878 | 0.43 | 0.305 | 0.28 | 0.318 | 0.498 | 0.766 | 0.697 | 0.619 | 0.775 | 0.636 | 0.363 | 0.304 | 0.32 | 0.358 | 0.357
COR-L23 | 0.967 | 1.01 | 1.05 | 0.951 | 0.894 | 0.793 | 0.824 | 0.922 | 0.874 | 0.585 | 0.382 | 0.344 | 0.33 | 0.305 | 0.278 | 0.563 | 0.66 | 0.57 | 0.605 | 0.516
COR-L 105 | 0.889 | 0.733 | 0.835 | 0.814 | 0.595 | 0.435 | 0.395 | 0.383 | 0.427 | 0.426 | 0.794 | 0.709 | 0.728 | 0.645 | 0.522 | 0.459 | 0.419 | 0.453 | 0.479 | 0.445
Calu-6 | 1.04 | 1.01 | 1.02 | 0.958 | 0.874 | 0.926 | 0.986 | 0.929 | 0.874 | 0.845 | 0.581 | 0.581 | 0.535 | 0.498 | 0.453 |  |  |  |  | 

Source: the supplement of paper PMC10307832
